This passage reports IC50 results from patent publication US20240228465A1, “SUBSTITUTED PYRIDINE N-OXIDE DERIVATIVES USEFUL AS A FACTOR XIA INHIBITORS” (Janssen Pharmaceutica NV, priority 2021, published 2024).

Like-named read-outs stand apart in the source and are kept apart here.

The target of test [1] is Factor XIa (Homo sapiens, UniProt P03951). Kind of test: Factor XIa inhibition assay utilizing a fluorophore-quencher pair peptide substrate (FLINT). It counts as biochemical. The settings on record: kinetic reads at 5 min intervals over 30 min; 30 min preincubation; read-out: FXIa (KIN) IC50. The source says: Biological Example 1: Factor XIa Inhibition Assay Utilizing a Fluorophore-Quencher Pair Peptide Substrate
Chain of Factor XIa (P03951 388-625 limits assumed): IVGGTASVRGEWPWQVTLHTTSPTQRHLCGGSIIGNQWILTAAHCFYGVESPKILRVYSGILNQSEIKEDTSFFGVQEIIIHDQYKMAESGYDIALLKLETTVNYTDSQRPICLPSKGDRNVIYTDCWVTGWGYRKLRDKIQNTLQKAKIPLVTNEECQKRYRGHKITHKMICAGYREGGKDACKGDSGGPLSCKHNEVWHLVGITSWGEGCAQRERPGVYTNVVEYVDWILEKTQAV
Chain of Factor XIa (P03951 19-387 partner limits assumed): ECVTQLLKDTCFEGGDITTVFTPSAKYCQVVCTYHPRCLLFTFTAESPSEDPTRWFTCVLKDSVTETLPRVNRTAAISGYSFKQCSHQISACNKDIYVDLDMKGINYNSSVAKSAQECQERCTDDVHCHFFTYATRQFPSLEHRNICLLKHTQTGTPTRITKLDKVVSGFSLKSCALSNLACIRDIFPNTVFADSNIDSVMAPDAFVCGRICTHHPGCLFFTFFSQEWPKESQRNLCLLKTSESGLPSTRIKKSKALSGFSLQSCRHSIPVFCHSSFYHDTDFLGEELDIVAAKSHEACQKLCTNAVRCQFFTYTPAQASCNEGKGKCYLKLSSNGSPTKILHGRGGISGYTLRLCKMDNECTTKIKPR
A fluorescence intensity (FLINT) based assay was used to monitor inhibition of Factor XIa. The peptide substrate, 5Fam-KLTRAETV-K5Tamra (purchased from New England Peptide) was chosen based on the […]. Conversion of zymogen […]. The custom peptide used in this assay was based on the Arg146 cleavage site of FXI. The peptide substrate was designed with a fluorophore-quencher pair, where the fluorescence is quenched until FXIa cleaves the 8-mer peptide after the Arg residue. The substrate KM was fit to a substrate inhibition model whereby kcat=0.86 s^−1, KM=12.4 μM, Ki=61.6 μM with an enzymatic efficiency, and kcat/KM=69523 M^−1s^−1.
The Factor XIa FLINT assay was used with the following 5Fam-KLTRAETV-K5Tamra assay buffer: 50 mM Tris, pH 7.5, 100 mM NaCl, 5 mM CaCl2, 0.1 mg/mL BSA, 0.03% CHAPS. Assay buffer was prepared by mixing all ingredients fresh. 5Fam-KLTRAETV-K5Tamra peptide substrate was first prepared at 10 mM in 100% DMSO, then diluted to 3 mM in 100% DMSO. Assay buffer was then added directly to the 3 mM stock of substrate to prepare the 30 μM 2× working concentration (15 μM final concentration). The 2× Factor XIa stock solution was prepared by diluting 6.562 μM stock in 1× assay buffer for a […].
Test compound(s) were run in an 11-point, 3-fold serial dilution with a final top compound concentration of 100 nM. Final DMSO in assay was 2%. FXIa was preincubated with compound for 30-minutes and then substrate was added to initiate the reaction. The assay was run with either end point (EP) reads at 30 min or kinetic (KIN) reads at 5 min intervals over 30 minutes. The time course was linear using 100 μM FXIa greater than 30 minutes. More specifically, the assay was run as follows: • 100 nL of 0.01 mM test compound was dispensed into black 384-well non-binding Greiner BioOne 784900 plate for 0.1 μM final concentration; • 5 μL of 1× assay buffer was dispensed to column 24 (low control) and 5 μL 2× Factor XIa solution was dispensed to columns 1-23 (column 23 high control); • the plate was centrifuged with a “cover” plate at 500 rpm for 1 min • the plate was pre-incubated for 30 minutes at room temperature with plate covered; • 5 μL of 2× 5Fam-KLTRAETV-K5Tamra peptide substrate was dispensed into the entire plate, columns 1-24; • the plate was centrifuged with a “cover” plate at 500 rpm for 1 min; • the plate was read monitoring fluorescence intensity on the BMG PHERAStar at room temperature, using fluorescence module 485 nm/520 nm.
(§1) Percent inhibition (IC50) curves were generated per compound tested, and data was analyzed using a 4-parameter logistic fit using GeneData Screener. The relative fluorescence unit (RFU) values were normalized to percent inhibition using the following equation:
[formula] • where LC—low control=mean signal of no Factor XIa or 100% inhibition of Factor XIa; HC—high control=mean signal of Factor XIa+5Fam-KLTRAETV-K5Tamra peptide substrate with DMSO only.
(§2) An 11-point dose response curve for the test compound(s) was generated using GENDATA to determine IC50 value based on the following equation:
[formula] • where Y is the % inhibition in the presence of X inhibitor concentration, Top=high control=mean signal of Factor XIa+5Fam-KLTRAETV-K5Tamra peptide substrate with DMSO only; Bottom=low control—mean signal of no Factor XIa or 100% inhibition of Factor XIa; HillSlope—Hill coefficient; and IC50=concentration of compound with 50% inhibition in relation to top/high control.
Representative compounds of formula (I) of the present invention were tested according to the procedure described in Biological Example 1 and Biological Example 2 above, with results as listed in Table 3, below. […]

Test [2] concerns the target human plasma kallikrein (Homo sapiens, UniProt P03952). In words: Kallikrein inhibition assay utilizing a quenched AMC peptide substrate (FLINT). Type of test: biochemical. The settings on record: read-out: Kallikrein (KIN) IC50. The procedure:
Biological Example 2: Kallikrein Inhibition Assay Utilizing a Quenched AMC Peptide Substrate
A fluorescence intensity (FLINT) based assay was used to monitor inhibition of human plasma kallikrein. The peptide substrate, Z-Gly-Pro-Arg-AMC (Purchased from Bachem; Catalog #I-1150) was chosen based on its relatively low KM for kallikrein which enables running the assay at lower substrate concentrations to control background fluorescence. The kinetic parameters for this substrate were determined by fitting titration data to the Michaelis-Menten equation yielding a KM=40 μm, kcat=0.76 s^−1, and kcat/KM=18932 M^−1s^−1.
The Kallikrein FLINT assay was used with the following Z-Gly-Pro-Arg-AMC assay buffer: 50 mM Tris, pH 7.5, 100 mM NaCl, 5 mM CaCl2, 0.1 mg/mL BSA, 0.03% CHAPS. Assay buffer was prepared by mixing all ingredients fresh. 2× Z-Gly-Pro-Arg-AMC peptide substrate was prepared by diluting 10 mM stock into 1× assay buffer for a 100 μM working concentration (50 μM final concentration). The 2× kallikrein stock solution was prepared by diluting 14.76 μM stock in 1× assay buffer for a 4 nM working stock solution (2 nM final concentration).
Test compound(s) were run in an 11-point, 3-fold serial dilution with a final top compound concentration of 1 μM. Final DMSO in assay was 2%. Plasma kallikrein was pre-incubated for 30-minute with compound and then 50 μM substrate was added to initiate the reaction. The assay was run with either end point (EP) reads at 30 min or kinetic (KIN) reads at 5 min intervals over 30 minutes. The time course was linear using 2 nM kallikrein greater than 30 minutes. More specifically, the assay was run as follows: • 100 nL of 0.1 mM test compound was dispensed into black 384-well non-binding Greiner BioOne 784900 plate for 1 μM final concentration; • 5 μL of 1× assay buffer was dispensed to columns 24 (low control) and 5 μL 2× human kallikrein enzyme solution was dispensed to columns 1-23 (column 23 high control); • the plate was centrifuged with a “cover” plate at 500 rpm for 1 min • the plate was pre-incubated for 30 minutes at room temperature with plate covered; • 5 μL of 2× Z-Gly-Pro-Arg-AMC peptide substrate was dispensed into the entire plate, columns 1-24; • the plate was centrifuged with a “cover” plate at 500 rpm for 1 min; • the plate was read monitoring fluorescence intensity on the BMG PHERAStar at room temperature, using fluorescence module 340 nm/440 nm.
as §1
% inhibition=((HC−LC)−(compound−LC)/(HC−LC))*100 • where LC—low control=mean signal of human kallikrein enzyme or 100% inhibition of human kallikrein enzyme; HC—high control=mean signal of Factor XIa+Z-Gly-Pro-Arg-AMC peptide substrate with DMSO only.
as §2
Y=Bottom+(Top−Bottom)/(1+10^((log IC50−X)*HillSlope)) • where Y is the % inhibition in the presence of X inhibitor concentration, Top=high control=mean signal of human kallikrein enzyme+Z-Gly-Pro-Arg-AMC peptide substrate with DMSO only; Bottom=low control—mean signal of no human kallikrein enzyme or 100% inhibition of human kallikrein enzyme; HillSlope—Hill coefficient; and IC50=concentration of compound with 50% inhibition in relation to top/high control.
Representative compounds of formula (I) of the present invention were tested according to the procedure described in Biological Example 1 and Biological Example 2 above, with results as listed in Table 3, below. Results listed in the (ER) column were measured using endpoint reads where a single fluorescence reading was measured for each well at a 30 min timepoint. […]

Where [3] appears, read: kinetic reads at 5 min intervals over 30 min, 30 min preincubation.

Chain of human plasma kallikrein (P03952 391-638 limits assumed): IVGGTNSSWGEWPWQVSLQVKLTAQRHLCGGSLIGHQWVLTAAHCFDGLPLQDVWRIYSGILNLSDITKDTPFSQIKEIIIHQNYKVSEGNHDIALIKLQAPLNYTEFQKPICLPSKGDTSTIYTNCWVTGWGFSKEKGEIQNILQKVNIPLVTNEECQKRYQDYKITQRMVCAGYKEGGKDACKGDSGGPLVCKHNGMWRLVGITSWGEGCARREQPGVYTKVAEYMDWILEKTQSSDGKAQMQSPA
Chain of human plasma kallikrein (P03952 20-390 partner limits assumed): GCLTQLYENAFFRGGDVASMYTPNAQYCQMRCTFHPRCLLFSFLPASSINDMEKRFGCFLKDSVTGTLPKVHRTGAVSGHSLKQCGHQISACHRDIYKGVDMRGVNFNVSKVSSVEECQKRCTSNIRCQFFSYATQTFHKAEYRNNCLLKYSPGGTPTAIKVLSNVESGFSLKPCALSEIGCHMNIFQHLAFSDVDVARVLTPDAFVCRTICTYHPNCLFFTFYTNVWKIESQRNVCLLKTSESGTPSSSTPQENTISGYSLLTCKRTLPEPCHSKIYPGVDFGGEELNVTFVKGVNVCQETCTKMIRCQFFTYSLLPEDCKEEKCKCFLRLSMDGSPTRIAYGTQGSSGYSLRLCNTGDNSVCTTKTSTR

For `Cn1nncc1-c1cn([C@@H](CC2CC2)c2ccc(-c3c(-n4cnnn4)ccc(Cl)c3F)c[n+]2[O-])nn1` [T5, (S)-5-(3-Chloro-2-fluoro-6-(1H-tetrazol-1-yl)phenyl)-2-(2-cyclopropyl-1-(3′-methyl-1H,3′H-[4,4′-bi(1,2,3-triazol)]-1-yl)ethyl)pyridine 1-oxide], the IC50 is 0.308 µM in test [1] and more than 10 µM in test [2] (kinetic reads, unit μM).
Take `Cn1nncc1-c1cn([C@H](CC2CC2)c2ccc(-c3c(-n4cnnn4)ccc(Cl)c3F)c[n+]2[O-])nn1` [T6, (R)-5-(3-Chloro-2-fluoro-6-(1H-tetrazol-1-yl)phenyl)-2-(2-cyclopropyl-1-(3′-methyl-1H,3′H-[4,4′-bi(1,2,3-triazol)]-1-yl)ethyl)pyridine 1-oxide]: the figures for the IC50 in test [1] and in test [2] (setting [3]) were 0.0034 µM and 0.312 µM, respectively.
As for `Cn1ncnc1-c1cn(C(CCOC(F)F)c2ccc(-c3c(-n4cc(C(F)(F)F)nn4)ccc(Cl)c3F)c[n+]2[O-])nn1` (centres unmarked) [T7, 5-(3-Chloro-2-fluoro-6-(4-(trifluoromethyl)-1H-1,2,3-triazol-1-yl)phenyl)-2-(3-(difluoromethoxy)-1-(4-(1-methyl-1H-1,2,4-triazol-5-yl)-1H-1,2,3-triazol-1-yl)propyl)pyridine 1-oxide], the IC50 in test [1] is approximately 0.0023 µM; in test [2] (setting [3]), approximately 0.334 µM.
As for `[O-][n+]1cc(-c2c(-n3cc(C(F)(F)F)nn3)ccc(Cl)c2F)ccc1[C@H](CCOC(F)F)n1cc(-c2cnnn2C(F)F)nn1` [T9, (S)-5-(3-Chloro-2-fluoro-6-(4-(trifluoromethyl)-1H-1,2,3-triazol-1-yl)phenyl)-2-(3-(difluoromethoxy)-1-(3′-(difluoromethyl)-1H,3′H-[4,4′-bi(1,2,3-triazol)]-1-yl)propyl)pyridine 1-oxide], the IC50 was more than 0.1 µM in test [1] and more than 1 µM in test [2] (kinetic reads, unit μM).

For orientation: IC50 means the midpoint of a concentration-inhibition curve.
